Legend:
[1] = endothermic substance; cited from earlier work
[2] = Measurement of pyrolysis temperature by differential scanning calorimeter; type: physicochemical; conditions: endothermic substance; DSC, heating rate 10°C/min, temperature at maximum heat flow
Experimental: The endothermic substance may have a pyrolysis temperature of 50°C or more. The pyrolysis temperature of the endothermic substance may be 300°C or less. The pyrolysis temperature may also be referred to as a temperature at which the endothermic substance undergoes an endothermic reaction (endothermic reaction temperature). The pyrolysis may mean that a material is chemically decomposed into a simpler material when heat has been applied thereto. The pyrolysis temperature may mean a temperature at which the pyrolysis occurs. The pyrolysis temperature of the endothermic substance may be 300°C or less, 280°C or less, 260°C or less, 240°C or less, 220°C or less, 200°C or less, 180°C or less, 160°C or less, 140°C or less, 120°C or less, or 100°C or less. The pyrolysis temperature of the endothermic substance may be specifically 50°C or more, 60°C or more, 70°C or more, 80°C or more, 90°C or more, 100°C or more, 120°C or more, 140°C or more, 160°C or more, or 180°C or more. When the endothermic substance is heated to the pyrolysis temperature, it may be decomposed into components constituting the endothermic substance through endotherm. When the pyrolysis temperature of the endothermic substance is within the range, there is no or little endothermic reaction at a normal operating temperature of the battery, and if the thermal runaway of the battery occurs, a cooling effect may be provided to the ignited battery cell through the endothermic reaction (e.g., pyrolysis) of the endothermic substance, and it may be advantageous in terms of delaying thermal transfer to adjacent battery cells. The pyrolysis temperature may be a value measured while increasing the temperature at a rate of 10°C/min using a differential scanning calorimeter (DSC Q2000, TA Corporation). From the differential scanning calorimeter, a graph may be obtained in which the x-axis is temperatures (°C) and the y-axis is heat flows (W/g), and in the graph, the temperature at the point where a heat flow (W/g) value, for example, an absolute value of a heat flow (W/g) is maximum may be set as the pyrolysis temperature.
For endothermic substances used in Examples and Comparative Examples, pyrolysis temperatures were measured while increasing the temperature at a rate of 10°C/min using a differential scanning calorimeter (DSC Q2000, TA Corporation), and the results were described in Table 1. Specifically, 0.2 to 0.5 mg of a sample was placed in a crucible of the differential scanning calorimeter, and then a lid with a single hole penetrated with a punching needle was covered thereon. In a state where the crucible was placed in the center of a press, and a plunger was moved downward by turning a lever until no pressure was further applied downward, the crucible and lid were placed in the differential scanning calorimeter equipment, and a thermal analysis was performed. From the differential scanning calorimeter, a graph with temperature (°C) on the x-axis and heat flow (W/g) on the y-axis could be obtained, and the temperature at the point where the heat flow (W/g) value is maximum in the graph was defined as the pyrolysis temperature.

[3] = Measurement of solubility in water; type: physicochemical; conditions: endothermic substance; 20°C, added by 1g to 100 ml of water until precipitate
Experimental: The endothermic substance may be a water-soluble substance.
Specifically, while the samples were each added by 1g to 100 ml of water at 20°C, the weight of the sample before a precipitate occurred was measured. The presence of the precipitate was visually observed; if no precipitate has occurred, it is observed transparently.

Compound	Pyrolysis temperature [2] [°C]	Solubility in water [3] [g/100ml]	Thermal conductivity [1]
[Cl-].[Na+] [NaCl]	801		3.13~3.87 W/mK
O.O.O.O.O.O.O.O.O.O.O.O.O=S(=O)([O-])[O-].O=S(=O)([O-])[O-].[Al+3].[K+] [KAl(SO4)2·12H2O]	90		0.55 W/mK
[Cl-].[K+] [KCl]	770	≥ 30	6.53 W/mK
O.O.O.O.O.O.O.O.O.O.O.O.O.O.O.O.O.O.O=S(=O)([O-])[O-].O=S(=O)([O-])[O-].O=S(=O)([O-])[O-].[Al+3].[Al+3] [Al2(SO4)3·18H2O]	102		0.24~0.31 W/mK
OB(O)O [Example H3BO3, H3BO3]	136		1 or less W/mK
[Cl-].[Cl-].[Mg+2] [MgCl2]	714		0.5 W/mK
[O]=[Al][O][Al]=[O] [Al2O3]	2000	0	18 W/mK

The next lines start with results.

Pyrolysis temperature [2] [°C]	Solubility in water [3] [g/100ml]	Compound	Thermal conductivity [1]
107		O.O.O.O.O.O.[Cl-].[Cl-].[Mg+2] [MgCl2·6H2O]	0.15~0.96 W/mK
2800	0	[O]=[Mg] [MgO]	30 W/mK
297		[OH][Al]([OH])[OH] [Al(OH)3]	26 W/mK
330		[Mg+2].[OH-].[OH-] [Mg(OH)2]	42~60 W/mK
